Source: patent publication US6677315B2, “Nucleosides for imaging and treatment applications” (The United States of America as represented by the …, priority 1997, dated 2004)

How the values were obtained:
[1] = system: CEM cells; assay: Growth inhibition, 72-hr continuous exposure; type: cell-based, human
Method: (§1) The human-derived cell lines CEM, MOLT-4, RAJI, U-937, K-562 and the murine-derived L1210 were purchased from the American Type Culture Collection, Rockville, Md. Cells were grown and maintained as a suspension culture in RPMI 1640 medium containing L-glutamine and 10%(v/v) heat-inactivated fetal calf serum (BRL-GIBCO, Rockville, Md.). Penicillin-streptomycin solution (Sigma Chemical Co., St. Louis, Mo.) was added to achieve a final concentration of 100 units/mL. and 100 μg/mL respectively.
(§2) All cell lines, except for L1210, were suspended in fresh media at 30,000 cells/mL. L1210 cells were suspended at 10,000 cells/mL. Cells, 2 mL, were added to each of the wells of 24-well plates and incubated with either 0 to 1000 μM of FAU or 0 to 300 μM of FMAU. Incubation was conducted at 37° C. in a humidified 5% CO2 atmosphere for 72 hours. Inhibition of cellular growth was assessed by cell counting (Elzone 180, Particle Data, Inc., Elmhurst, IL). Under these conditions, the control doubling times for CEM, MOLT-4, RAJI, U-937, and K-562 cells were 21-22 hours, while the doubling times for L1210 was 8-10 hours.

[2] = system: K-562 cells; assay: Growth inhibition, 72-hr continuous exposure; type: cell-based, human
Method: as §1, §2

[3] = system: MOLT-4 cells; assay: Growth inhibition, 72-hr continuous exposure; type: cell-based, human; conditions: MOLT-4, 100 μM, 72 hours continuous incubation
Method: as §1, §2

[4] = system: RAJI cells; assay: Growth inhibition, 72-hr continuous exposure; type: cell-based, human; conditions: 72 hours continuous incubation
Method: as §1, §2

[5] = system: U-937 cells; assay: Growth inhibition, 72-hr continuous exposure; type: cell-based, human; conditions: U-937, 100 μM, 72 hours continuous incubation
Method: as §1, §2

[6] = system: L1210 cells; assay: Growth inhibition, 72-hr continuous exposure; type: cell-based, murine; conditions: L1210, 100 μM, 72 hours continuous incubation
Method: as §1, §2

[7] = molecular target: T1, thymidylate synthase in CEM cells (Homo sapiens, UniProt P04818); assay: Dehalogenation of IdUrd as probe for thymidylate synthase activity in situ; type: cell-based; conditions: 3 μM [3H]-IdUrd for 24 hours, fraction in DNA
T1 construct: endogenous in cells; host or cells: CEM cells
Method: (§3) The relative activity of thymidylate synthase was determined after incubation of cells with 3 μM [3H]-IdUrd for 24 hours. DNA was harvested, digested, and chromatographed as described above. Some IdUrd was incorporated into DNA with the iodine remaining intact on the pyrimidine ring. After conversion to IdUMP, part of the IdUrd was dehalogenated by TS to dUMP, which then was converted by TS into dTMP and subsequently incorporated into DNA, and recovered in the DNA digest as [^3H-dThd]. Relative TS activity in situ was defined as the fraction of IdUrd-derived material in DNA which was dehalogenated, i.e., ([^3H]-dThd)/([^3H]-dThd+[^3H]-IdUrd). These methods could also be used with non-radioactive IdUrd, if a stable isotopic label is used, e.g., ^13C, ^15N or ^2H. A mass spectrometric detector would be substituted for the radioactivity detector in the HPLC analysis. Unlabeled IdUrd can't be used since its dehalogenation produced unlabeled dThd, which would be indistinguishable from the endogenous pool of dThd in DNA.

[8] = molecular target: T2, thymidylate synthase in MOLT-4 cells (Homo sapiens, UniProt P04818); assay: as above; type: cell-based; conditions: MOLT-4, 3 μM [3H]-IdUrd for 24 hours, fraction in DNA
T2 construct: endogenous in cells; host or cells: MOLT-4 cells
Method: as §3

[9] = molecular target: T3, thymidylate synthase in RAJI cells (Homo sapiens, UniProt P04818); assay: as above; type: cell-based; conditions: 3 μM [3H]-IdUrd for 24 hours, fraction in DNA
T3 construct: endogenous in cells; host or cells: RAJI cells
Method: as §3

[10] = molecular target: T4, thymidylate synthase in U-937 cells (Homo sapiens, UniProt P04818); assay: as above; type: cell-based; conditions: U-937, 3 μM [3H]-IdUrd for 24 hours, fraction in DNA
T4 construct: endogenous in cells; host or cells: U-937 cells
Method: as §3

[11] = molecular target: T5, thymidylate synthase in L1210 cells (Mus musculus, UniProt P07607); assay: as above; type: cell-based, murine; conditions: L1210, 3 μM [3H]-IdUrd for 24 hours, fraction in DNA
T5 construct: endogenous in cells; host or cells: L1210 cells
Method: as §3

[12] = molecular target: T6, thymidylate synthase (TS) in U-937 cell extracts (Homo sapiens, UniProt P04818); assay: Methylation of FAUMP by thymidylate synthase in cell extracts (tritium release); type: biochemical; conditions: 20 μM substrate, tritiated water release
T6 construct: Cell extracts were prepared from each cell line by sonication of intact cells; endogenous in cells; host or cells: U-937 cells (sonicated extract)
Method: (§4) When TS adds a methyl group to the 5-position of dUMP to generate dTMP, the proton at that location is released. When [5-^3H]dUMP is the substrate, TS activity in cell extracts can be assessed by monitoring the accumulation rate of tritiated water. Here, [5-^3H]FAUMP was used as the substrate for methylation by TS, and the generation of FMAUMP was determined from the release of tritiated water. Cell extracts were prepared from each cell line by sonication of intact cells. (See: Armstrong R D, Diasio R B. “Improved Measurement of Thymidylate Synthetase Activity by a Modified Tritium-Release Assay” J. Biochem. Biophys. Methods. 1982; 6: 141-7 and Speth P A J, Kinsella T J, Chang A E, Klecker R W, Belanger K. Collins J M. “Incorporation of Iododeoxyuridine into DNA of Hepatic Metastases Versus Normal Human Liver” Clin. Pharmacol. Ther. 1988; 44:369-75.) The methyl donor was provided by 5,10-methylene tetrahydrofolate, which was generated in situ by the addition of formaldehyde to tetrahydrofolate. At various times after the addition of substrate (20 μM of either [5-^3H]dUMP or [5-^3H]FAUMP), the reaction was stopped by addition of HCl. Unreacted substrate was separated from tritiated water by adsorption onto activated charcoal. After centrifugation, an aliquot of the supernatant was counted for tritiated water.

[13] = system: thymidylate synthase (TS) in cell extracts of the other cell lines; assay: Methylation of FAUMP by thymidylate synthase in cell extracts (tritium release), other cell lines; type: biochemical, human; murine; conditions: 20 μM substrate, tritiated water release
Method: as §4

[14] = system: CEM cells; assay: Intracellular nucleotide formation and incorporation into DNA; type: cell-based, human; conditions: 10 μM FAU for 24 hours
Method: as §1
(§5) All cell lines, except for L1210, were resuspended in fresh media at 300,000 cells/mL with appropriate amount of radioactive drug. L1210 cells were resuspended at 150,000 cells/mL. After 24 hours at 37° C. in a humidified 5% CO2 atmosphere, cells were harvested for nucleotide measurement and DNA incorporation. Soluble nucleotides were determined for each cell line following exposure to 10 μM FAU. Incorporation of FAU into DNA (as FMAU) was determined over a range of FAU concentrations from 1 μM to 1 mM. As described previously by Klecker, R W, Katki A G, Collins J M. in “Toxicity, Metabolism, DNA Incorporation with Lack of Repair, and Lactate Production for 1-(2′-Fluoro-2′-deoxy-β-D-arabinofuranosyl)-5-iodouracil in U-937 and MOLT-4-cells”, Mol. Pharmacol. 1994; 46;1204-1209; and Speth P A J, Kinsella T J, Chang A E, Klecker R W, Belanger K. Collins J M. in “Incorporation of Iododeoxyuridine into DNA of Hepatic Metastases Versus Normal Human Liver.” Clin. Pharmacol. Ther. 1988; 44:369-75, DNase I and phosphodiesterase I were used to release the bases from DNA. These bases and soluble nucleotides were determined by previously reported HPLC-based methods as noted by Klecker et al. in the previously mentioned reference, “Toxicity, Metabolism, DNA Incorporation with Lack of Repair, and Lactate Production for 1-(2′-fluoro-2′-deoxy-β-D-arabinofuranosyl)-5-iodouracil in U-937 and MOLT-4-cells.” Drug incorporation into cellular DNA was determined using the equation: percent incorporation=100×([drug]/([dThd]+[drug]).

[15] = system: K-562 cells; assay: as above; type: cell-based, human; conditions: K-562, 10 μM FAU for 24 hours
Method: as §1, §5

[16] = system: MOLT-4 cells; assay: as above; type: cell-based, human; conditions: MOLT-4, 10 μM FAU for 24 hours
Method: as §1, §5

[17] = system: RAJI cells; assay: as above; type: cell-based, human; conditions: 10 μM FAU for 24 hours
Method: as §1, §5

[18] = system: U-937 cells; assay: as above; type: cell-based, human; conditions: U-937, 10 μM FAU for 24 hours
Method: as §1, §5

[19] = system: L1210 cells; assay: as above; type: cell-based, murine; conditions: L1210, 10 μM FAU for 24 hours; incorporated as FMAU
Method: as §1
(§6) All cell lines, except for L1210, were resuspended in fresh media at 300,000 cells/mL with appropriate amount of radioactive drug. L1210 cells were resuspended at 150,000 cells/mL. […] Soluble nucleotides were determined for each cell line following exposure to 10 μM FAU. Incorporation of FAU into DNA (as FMAU) was determined over a range of FAU concentrations from 1 μM to 1 mM. […] These bases and soluble nucleotides were determined by previously reported HPLC-based methods as noted by Klecker et al. in the previously mentioned reference, “Toxicity, Metabolism, DNA Incorporation with Lack of Repair, and Lactate Production for 1-(2′-fluoro-2′-deoxy-β-D-arabinofuranosyl)-5-iodouracil in U-937 and MOLT-4-cells.” Drug incorporation into cellular DNA was determined using the equation: percent incorporation=100×([drug]/([dThd]+[drug]).

[20] = system: CEM, MOLT-4, RAJI, U-937, K-562 and L1210 cells; assay: Intracellular nucleotide formation, all cell lines; type: cell-based, human; murine; conditions: incubation with 10 μM FAU for 24 hours
Method: as §1, §6

[21] = system: CEM, MOLT-4, RAJI, U-937, K-562 and L1210 cells; assay: Growth inhibition, 72-hr continuous exposure, all cell lines; type: cell-based, human; murine
Method: as §1, §2

[22] = system: mice; assay: Toxicity in mice after oral gavage for 14 days; type: in vivo; conditions: oral gavage 5 g/kg once per day for 14 days, plus 14 days observation
Method: (§7) The toxicity of the compounds of the present invention has been evaluated in an animal model system. FAU was administered by oral gavage to mice at a dose of 5 g/kg once per day for 14 consecutive days. After an additional 14 days of observation following this dosing period, the animals were sacrificed. […] Blood samples were obtained at various times during this treatment, to confirm that the drug was adequately absorbed. HPLC analysis of these samples indicated FAU concentrations in plasma reached maximum levels of 750 micromolar and minimum levels of 50 micromolar.

[23] = FAU plasma concentrations in mice during oral dosing (HPLC); type: in vivo; conditions: oral gavage 5 g/kg once per day for 14 days
Method: as §7

T5 sequence (P07607 whole entry): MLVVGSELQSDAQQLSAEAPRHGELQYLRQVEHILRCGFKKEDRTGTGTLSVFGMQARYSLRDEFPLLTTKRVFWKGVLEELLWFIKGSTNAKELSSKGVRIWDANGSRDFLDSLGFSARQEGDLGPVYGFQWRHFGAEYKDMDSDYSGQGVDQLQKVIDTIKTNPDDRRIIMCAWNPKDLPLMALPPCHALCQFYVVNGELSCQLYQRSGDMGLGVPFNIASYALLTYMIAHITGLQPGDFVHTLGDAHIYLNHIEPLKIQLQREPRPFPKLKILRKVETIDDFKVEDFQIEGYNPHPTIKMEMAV
T4 sequence (P04818 whole entry): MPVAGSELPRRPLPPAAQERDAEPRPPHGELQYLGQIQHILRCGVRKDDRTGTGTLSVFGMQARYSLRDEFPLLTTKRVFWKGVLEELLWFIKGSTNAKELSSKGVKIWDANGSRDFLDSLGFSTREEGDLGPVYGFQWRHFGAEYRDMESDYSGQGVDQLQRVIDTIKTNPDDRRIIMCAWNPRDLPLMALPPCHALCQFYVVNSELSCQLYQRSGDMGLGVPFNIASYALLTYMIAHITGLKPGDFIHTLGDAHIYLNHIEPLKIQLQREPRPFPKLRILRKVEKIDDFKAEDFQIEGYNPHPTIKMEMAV
T2 sequence (P04818 whole entry): as above
T1 sequence (P04818 whole entry): as above
T3 sequence (P04818 whole entry): as above
T6 sequence (P04818 whole entry): as above

Cc1cn([C@H]2O[C@H](CO)[C@@H](O)[C@@H]2F)c(=O)[nH]c1=O [FMAU, 1-(2-deoxy-2-fluoro-alpha-D-arabinofuranosyl)thymine, reference compound]
effect on cell growth ([1]; 0.3 μM (lowest concentration used), 72 hours): substantial effect
inhibition at 100 µM ([1]; Homo sapiens, CCRF-CEM, 100 μM, 72 hours continuous incubation): > 80%
inhibition at 100 µM ([2]; Homo sapiens, K562, K-562, 100 μM, 72 hours continuous incubation): > 80%
effect on cell growth ([2]; K-562, 0.3 μM (lowest concentration used), 72 hours): substantial effect
inhibition at 100 µM ([3]; Homo sapiens): > 80%
inhibition at 100 µM ([4]; Homo sapiens): > 80%
inhibition at 100 µM ([5]; Homo sapiens): > 80%
inhibition at 100 µM ([6]; Mus musculus): > 80%

O=c1[nH]c(=O)n([C@H]2C[C@H](O)[C@@H](CO)O2)cc1I [IdUrd, Iododeoxyuridine]
relative dehalogenation of IdUrd [7]: ≥ 50%
relative dehalogenation of IdUrd [8]: ≥ 50%
relative dehalogenation of IdUrd [9]: ≤ 15%
relative dehalogenation of IdUrd [10]: ≥ 50%
relative dehalogenation of IdUrd [11]: ≤ 15%

O=c1ccn([C@@H]2O[C@H](COP(=O)(O)O)[C@@H](O)[C@@H]2F)c(=O)[nH]1 [FAUMP, FAU monophosphate]
rate of conversion to FMAUMP as % of the rate of dTMP formation from dUMP [12]: about 1%
rate of conversion to FMAUMP as % of the rate of dTMP formation from dUMP [13]: 0.97-1.5%

O=c1ccn([C@@H]2O[C@H](CO)[C@@H](O)[C@@H]2F)c(=O)[nH]1 [FAU, 1-(2′Fluoro-2′deoxy-β-D-arabinofuranosyl)-uracil]
FAUMP formed intracellularly [14]: 0.96 ± 0.24 nmol/10^6 cells
FMAUTP formed intracellularly [14]: 2.30 ± 0.28 nmol/10^6 cells
DNA % incorp ([14]; incorporated as FMAU): 0.81 ± 0.10%
FAUMP formed intracellularly [15]: 11.1 ± 0.9 nmol/10^6 cells
DNA % incorp ([15]; incorporated as FMAU): 0.22 ± 0.002%
FMAUTP formed intracellularly [16]: 1.92 ± 0.55 nmol/10^6 cells
DNA % incorp ([16]; incorporated as FMAU): 0.19 ± 0.01%
FAUMP formed intracellularly [17]: 0.95 ± 0.17 nmol/10^6 cells
DNA % incorp ([17]; incorporated as FMAU): 0.09 ± 0.002%
FAUMP formed intracellularly [18]: 2.70 ± 0.69 nmol/10^6 cells
FMAUTP formed intracellularly [18]: 1.99 ± 0.08 nmol/10^6 cells
DNA % incorp ([18]; incorporated as FMAU): 0.50 ± 0.02%
DNA % incorp [19]: 0.08 ± 0.005%
amounts of FMAUMP or FMAUDP found intracellularly [20]: trace amounts
growth inhibition ([1]; 100 μM, 72 hours continuous incubation): more than 50%
growth inhibition ([2]; K-562, 100 μM, 72 hours continuous incubation): somewhat less inhibited
growth inhibition [3]: somewhat less inhibited
growth inhibition ([4]; 100 μM): completely uninhibited
growth inhibition [5]: more than 50%
growth inhibition [6]: completely uninhibited
IC50 values relative to FMAU (fold higher) [21]: 10 fold
histopathologic examination of murine tissues (toxicity) [22]: no toxicity attributable to the drug treatment
FAU concentration in plasma, maximum level [23]: 750 µM
FAU concentration in plasma, minimum level [23]: 50 µM
